In the experiment the test system is T1, carbohydrate oxidase from M. nivale (Microdochium nivale CBS 100236, SEQ ID NO: 2), wild type.
T1 construct: made in house
Description: Steady state kinetics (apparent Km) by the 4AA-TOPS assay. In kind it is biochemical. The settings on record: apparent value from Lineweaver-Burke plot, simple Michaelis-Menten kinetics assumed, carbohydrate substrate concentration varied, phosphate/citrate pH 6. The method, then:
Assays are carried out in 96 well microtiter plates. 100 µl 0.1 M phosphate/citrate, pH 6 is mixed with 50 µl 0.24 M glucose and 50 µl pre-mix (3 mM 4-aminoantipyrine (4AA), 7 mM N-ethyl-N-sulfopropyl-m-toluidine (TOPS), 40 PODU/ml rCiP) and the reaction is started by adding 40 µl of oxidase solution diluted appropriately. Absorption is measured at 490 nm as a function time using the Vmax microtiter plate ready from Molecular Devices and the activity is taken as the slope of the linear increase in absorption.
Steady state kinetics was conducted by varying the concentration of the carbohydrate substrates and determining the carbohydrate oxidase activity by the 4AA-TOPS assay. Simple Michaelis-Menten kinetics was assumed although the reaction is not a simple one substrate-one product mechanism (E+S↔ES↔E+P).
The steady state kinetics for the carbohydrate oxidase from M. nivale were investigated using some of the preferred substrates. Kinetic constants were obtained from a Lineweaver-Burke plot, assuming simple Michaelis-Menten kinetics (although this is a rather poor assumption) to obtain apparent values "Km" and "Vmax" for various substrates.

As for `OC[C@H]1OC(O)[C@H](O)[C@@H](O)[C@@H]1O` (stereo partly drawn) [Glucose], the Km is 42 mM.
For `O=C[C@H](O)[C@@H](O)[C@H](O[C@@H]1O[C@H](CO)[C@@H](O)[C@H](O)[C@H]1O)[C@H](O)CO` [Cellobiose], the Km stood at 59 mM.
With `OC[C@H]1O[C@H](O[C@H]2[C@H](O)[C@@H](O)C(O)O[C@@H]2CO)[C@H](O)[C@@H](O)[C@@H]1O` (mixture of isomers) [Maltose], the Km was 11 mM.

(Values after patent publication EP1525798B1, “Carbohydrate oxidase and use thereof in baking” (Novozymes A/S, priority 1997, dated 1999).)
